What all share (test): relative viability (nuclei count vs DMSO), 5 days (fraction); higher = more cells survive
Compound in the assay “Fedratinib + Linsitinib”: Cc1cnc(Nc2ccc(OCCN3CCCC3)cc2)nc1Nc1cccc(S(=O)(=O)NC(C)(C)C)c1 [Fedratinib] + C[C@]1(O)C[C@@H](c2nc(-c3ccc4ccc(-c5ccccc5)nc4c3)c3c(N)nccn32)C1 [Linsitinib] (partner 1 µM)
The essentials: (§1)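 Medians of duplicate plates are given as relative viability. That measure is the nuclei count in treated wells divided by the count in vehicle wells. Counts were taken on 4× images of lung cancer cell lines in 1536-well plates, 5 days after pin-tool dosing the day after seeding with one drug alone or a fixed anchor-drug dose plus five library-drug doses (not always all listed) in √10 steps.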

Compound in the assay “GW-2580 + Olaparib”: COC1=CC=C(C=C1)COC2=C(C=C(C=C2)CC3=CN=C(N=C3N)N)OC [GW-2580] + O=C(c1cc(Cc2n[nH]c(=O)c3ccccc23)ccc1F)N1CCN(C(=O)C2CC2)CC1 [Olaparib] (partner 8 µM)
The essentials:
as §1

Compound in the assay “Fedratinib + Foretinib”: Cc1cnc(Nc2ccc(OCCN3CCCC3)cc2)nc1Nc1cccc(S(=O)(=O)NC(C)(C)C)c1 [Fedratinib] + COc1cc2c(Oc3ccc(NC(=O)C4(C(=O)Nc5ccc(F)cc5)CC4)cc3F)ccnc2cc1OCCCN1CCOCC1 [Foretinib] (partner 0.25 µM)
In outline: as §1

Compound in the assay “Fedratinib + Crizotinib”: Cc1cnc(Nc2ccc(OCCN3CCCC3)cc2)nc1Nc1cccc(S(=O)(=O)NC(C)(C)C)c1 [Fedratinib] + C[C@@H](Oc1cc(-c2cnn(C3CCNCC3)c2)cnc1N)c1c(Cl)ccc(F)c1Cl [Crizotinib] (partner 1 µM)
In outline:
as §1

Compound in the assay “GW-2580 + Luminespib”: COC1=CC=C(C=C1)COC2=C(C=C(C=C2)CC3=CN=C(N=C3N)N)OC [GW-2580] + CCNC(=O)c1noc(-c2cc(C(C)C)c(O)cc2O)c1-c1ccc(CN2CCOCC2)cc1 [Luminespib] (partner 0.01 µM)
In outline: as §1

Compound in the assay “Fedratinib + Decitabine”: Cc1cnc(Nc2ccc(OCCN3CCCC3)cc2)nc1Nc1cccc(S(=O)(=O)NC(C)(C)C)c1 [Fedratinib] + Nc1ncn([C@H]2C[C@H](O)[C@@H](CO)O2)c(=O)n1 [Decitabine] (partner 2 µM)
The essentials:
as §1

On to Calu-6, for which the relative viability stood at 1.02 in the assay with Fedratinib + Linsitinib (first compound 0.1 µM); 0.953 with Fedratinib + Linsitinib (first compound 0.3162 µM); 0.917 in the assay with Fedratinib + Linsitinib (first compound 1 µM); 0.657 with GW-2580 + Olaparib (first compound 0.08 µM); 0.663 with GW-2580 + Olaparib (first compound 0.8 µM); 0.559 in the assay with GW-2580 + Olaparib (first compound 2.53 µM). For the same cell line, the relative viability was 0.636 with GW-2580 + Olaparib (first compound 8 µM); 0.855 with Fedratinib + Foretinib (first compound 0.1 µM); 0.857 with Fedratinib + Foretinib (first compound 0.3162 µM); 0.784 with Fedratinib + Foretinib (first compound 1 µM); 0.753 with Fedratinib + Crizotinib (first compound 0.1 µM); 0.701 with Fedratinib + Crizotinib (first compound 0.3162 µM). Moreover, the relative viability with Fedratinib + Crizotinib (first compound 1 µM) came to 0.677.
Consider ChaGo-K-1, for which the relative viability with GW-2580 + Luminespib (first compound 0.08 µM) is 0.757; with GW-2580 + Luminespib (first compound 0.8 µM), 0.677; in the assay with GW-2580 + Luminespib (first compound 2.53 µM), 0.501; with GW-2580 + Luminespib (first compound 8 µM) it was 0.562; in the assay with Fedratinib + Decitabine (first compound 0.1 µM) it was 0.488; with Fedratinib + Decitabine (first compound 0.3162 µM), 0.513. Besides, the relative viability is 0.544 with Fedratinib + Decitabine (first compound 1 µM); 0.423 in the assay with GW-2580 + Olaparib (first compound 0.08 µM); 0.457 in the assay with GW-2580 + Olaparib (first compound 0.8 µM); 0.388 in the assay with GW-2580 + Olaparib (first compound 2.53 µM); 0.393 with GW-2580 + Olaparib (first compound 8 µM); 0.811 in the assay with Fedratinib + Foretinib (first compound 0.1 µM). For the same cell line, the relative viability in the assay with Fedratinib + Foretinib (first compound 0.3162 µM) came out at 0.923; in the assay with Fedratinib + Foretinib (first compound 1 µM), 0.899; with Fedratinib + Crizotinib (first compound 0.1 µM), 0.851; with Fedratinib + Crizotinib (first compound 0.3162 µM), 1.06; with Fedratinib + Crizotinib (first compound 1 µM) it was 0.975.
Take EBC-1: the relative viability stood at 0.764 with Fedratinib + Linsitinib (first compound 0.1 µM); 0.937 with Fedratinib + Linsitinib (first compound 0.3162 µM); 0.814 in the assay with Fedratinib + Linsitinib (first compound 1 µM); 0.837 with GW-2580 + Olaparib (first compound 0.08 µM); 0.734 in the assay with GW-2580 + Olaparib (first compound 0.8 µM); 0.664 with GW-2580 + Olaparib (first compound 2.53 µM). For the same cell line, the relative viability with GW-2580 + Olaparib (first compound 8 µM) came to 0.59; with Fedratinib + Foretinib (first compound 0.1 µM) it was 0.112; with Fedratinib + Foretinib (first compound 0.3162 µM) it was 0.103; with Fedratinib + Foretinib (first compound 1 µM) it was 0.1; with Fedratinib + Crizotinib (first compound 0.1 µM), 0.184; with Fedratinib + Crizotinib (first compound 0.3162 µM), 0.213. For the same cell line, the relative viability in the assay with Fedratinib + Crizotinib (first compound 1 µM) was 0.185.
As to EKVX, the relative viability with Fedratinib + Linsitinib (first compound 0.1 µM) was 1.09; with Fedratinib + Linsitinib (first compound 0.3162 µM), 0.967; with Fedratinib + Linsitinib (first compound 1 µM) it was 0.982; in the assay with GW-2580 + Luminespib (first compound 0.08 µM) it was 0.93; with GW-2580 + Luminespib (first compound 0.8 µM), 0.936; in the assay with GW-2580 + Luminespib (first compound 2.53 µM), 0.863. The relative viability in the assay with GW-2580 + Luminespib (first compound 8 µM) is 0.923; in the assay with Fedratinib + Decitabine (first compound 0.1 µM), 0.315; in the assay with Fedratinib + Decitabine (first compound 0.3162 µM), 0.37; in the assay with Fedratinib + Decitabine (first compound 1 µM), 0.363; in the assay with GW-2580 + Olaparib (first compound 0.08 µM), 0.905; with GW-2580 + Olaparib (first compound 0.8 µM), 0.986. For the same cell line, the relative viability was 0.812 with GW-2580 + Olaparib (first compound 2.53 µM); 0.89 in the assay with GW-2580 + Olaparib (first compound 8 µM); 0.791 with Fedratinib + Foretinib (first compound 0.1 µM); 0.687 with Fedratinib + Foretinib (first compound 0.3162 µM); 0.828 with Fedratinib + Foretinib (first compound 1 µM); 1.05 in the assay with Fedratinib + Crizotinib (first compound 0.1 µM). The relative viability with Fedratinib + Crizotinib (first compound 0.3162 µM) was found to be 0.889; with Fedratinib + Crizotinib (first compound 1 µM), 0.958.
Regarding EMC-BAC-2, the relative viability is 0.802 with Fedratinib + Linsitinib (first compound 0.1 µM); 0.832 with Fedratinib + Linsitinib (first compound 0.3162 µM); 0.796 in the assay with Fedratinib + Linsitinib (first compound 1 µM); 1.27 with GW-2580 + Luminespib (first compound 0.08 µM); 1.3 with GW-2580 + Luminespib (first compound 0.8 µM); 1.17 with GW-2580 + Luminespib (first compound 2.53 µM). In addition, the relative viability with GW-2580 + Luminespib (first compound 8 µM) amounted to 1.11; in the assay with Fedratinib + Decitabine (first compound 0.1 µM) it was 1.01; with Fedratinib + Decitabine (first compound 0.3162 µM), 1.07; in the assay with Fedratinib + Decitabine (first compound 1 µM), 0.988; with GW-2580 + Olaparib (first compound 0.08 µM), 0.477; with GW-2580 + Olaparib (first compound 0.8 µM) it was 0.514. The relative viability is 0.429 with GW-2580 + Olaparib (first compound 2.53 µM); 0.462 with GW-2580 + Olaparib (first compound 8 µM); 1 with Fedratinib + Foretinib (first compound 0.1 µM); 1.01 in the assay with Fedratinib + Foretinib (first compound 0.3162 µM); 1 with Fedratinib + Foretinib (first compound 1 µM); 0.615 with Fedratinib + Crizotinib (first compound 0.1 µM). The results for the relative viability with Fedratinib + Crizotinib (first compound 0.3162 µM) and in the assay with Fedratinib + Crizotinib (first compound 1 µM) were 0.73 and 0.7, respectively.
As to EPLC-272H, the relative viability with Fedratinib + Linsitinib (first compound 0.1 µM) was 1.45; in the assay with Fedratinib + Linsitinib (first compound 0.3162 µM), 0.983; in the assay with Fedratinib + Linsitinib (first compound 1 µM) it was 0.993; with GW-2580 + Luminespib (first compound 0.08 µM), 0.274; in the assay with GW-2580 + Luminespib (first compound 0.8 µM), 0.204; with GW-2580 + Luminespib (first compound 8 µM), 0.243. Besides, the relative viability with Fedratinib + Decitabine (first compound 0.1 µM) was 0.312; with Fedratinib + Decitabine (first compound 0.3162 µM) it was 0.393; in the assay with Fedratinib + Decitabine (first compound 1 µM), 0.344; in the assay with GW-2580 + Olaparib (first compound 0.08 µM), 0.819; in the assay with GW-2580 + Olaparib (first compound 0.8 µM), 0.861; in the assay with GW-2580 + Olaparib (first compound 2.53 µM) it was 0.755. Moreover, the relative viability was 0.605 with GW-2580 + Olaparib (first compound 8 µM); 0.558 with Fedratinib + Foretinib (first compound 0.1 µM); 0.684 with Fedratinib + Foretinib (first compound 0.3162 µM); 0.472 with Fedratinib + Foretinib (first compound 1 µM); 1 with Fedratinib + Crizotinib (first compound 0.1 µM); 0.87 with Fedratinib + Crizotinib (first compound 0.3162 µM). In addition, the relative viability in the assay with Fedratinib + Crizotinib (first compound 1 µM) stood at 0.757.
On to H3255, for which the relative viability turned out to be 1.04 with Fedratinib + Linsitinib (first compound 0.1 µM); 1.03 in the assay with Fedratinib + Linsitinib (first compound 0.3162 µM); 0.926 with Fedratinib + Linsitinib (first compound 1 µM); 0.825 with GW-2580 + Luminespib (first compound 0.08 µM); 1.1 with GW-2580 + Luminespib (first compound 0.8 µM); 0.84 with GW-2580 + Luminespib (first compound 2.53 µM). Further, the relative viability with GW-2580 + Luminespib (first compound 8 µM) stood at 0.67; with Fedratinib + Decitabine (first compound 0.1 µM), 0.607; in the assay with Fedratinib + Decitabine (first compound 0.3162 µM) it was 0.685; with Fedratinib + Decitabine (first compound 1 µM) it was 0.507; in the assay with GW-2580 + Olaparib (first compound 0.08 µM) it was 0.618; with GW-2580 + Olaparib (first compound 0.8 µM), 0.607. Besides, the relative viability with GW-2580 + Olaparib (first compound 2.53 µM) was 0.566; with GW-2580 + Olaparib (first compound 8 µM), 0.508; with Fedratinib + Foretinib (first compound 0.1 µM), 0.82; in the assay with Fedratinib + Foretinib (first compound 0.3162 µM) it was 0.766; in the assay with Fedratinib + Foretinib (first compound 1 µM) it was 0.877; with Fedratinib + Crizotinib (first compound 0.1 µM), 0.873. The relative viability with Fedratinib + Crizotinib (first compound 0.3162 µM) was found to be 0.805; with Fedratinib + Crizotinib (first compound 1 µM), 0.723.
Consider HARA, for which the relative viability in the assay with Fedratinib + Linsitinib (first compound 0.1 µM) was 1.09; with Fedratinib + Linsitinib (first compound 0.3162 µM), 0.975; in the assay with Fedratinib + Linsitinib (first compound 1 µM), 0.979; in the assay with GW-2580 + Luminespib (first compound 0.08 µM), 0.882; in the assay with GW-2580 + Luminespib (first compound 0.8 µM), 0.801; in the assay with GW-2580 + Luminespib (first compound 2.53 µM), 0.389. For the same cell line, the relative viability with GW-2580 + Luminespib (first compound 8 µM) turned out to be 0.596; with Fedratinib + Decitabine (first compound 0.1 µM), 0.485; with Fedratinib + Decitabine (first compound 0.3162 µM), 0.551; with Fedratinib + Decitabine (first compound 1 µM), 0.427; in the assay with GW-2580 + Olaparib (first compound 0.08 µM), 0.624; with GW-2580 + Olaparib (first compound 0.8 µM), 1.19. Besides, the relative viability with GW-2580 + Olaparib (first compound 2.53 µM) is 0.895; in the assay with GW-2580 + Olaparib (first compound 8 µM) it was 0.726; with Fedratinib + Foretinib (first compound 0.1 µM), 0.948; in the assay with Fedratinib + Foretinib (first compound 0.3162 µM), 0.493; with Fedratinib + Foretinib (first compound 1 µM) it was 0.782; with Fedratinib + Crizotinib (first compound 0.1 µM), 1.16. The relative viability in the assay with Fedratinib + Crizotinib (first compound 0.3162 µM) amounted to 1.04; in the assay with Fedratinib + Crizotinib (first compound 1 µM) it was 1.05.

For the origin of these results see the supplement of paper PMC10307832.
